Source: PMC11904993, “Humanized Candida and NanoBiT Assays Expedite Discovery of Bdf1 Bromodomain Inhibitors With Antifungal Potential” (Advanced Science, 2025)
Where “and” joins values, the source holds several entries; their conditions need not be identical. Identical values can stand only once. *1 amine or outer side, *2 acyl side, *3 side chain or, on linkers, in order; H or OH if unused. Where a SMILES comes first, the peptide text is derived from it. Bridges are numbered along the chain shown (N, C = ends). [ ]: non-standard residue; d: D form. The star is where a group is joined. pTerphenylCO(4''-OnC5H11) = CCCCCOc1ccc(-c2ccc(-c3ccc(C(=O)*)cc3)cc2)cc1; Orn(4R-OH,5R-OH) = O=C([C@H](C[C@@H](O)[C@@H](O)N[*:3])N[*:1])[*:2]; hTyr(3S-OH,4S-OH) = N[C@H](C(=O)O)[C@H](O)[C@@H](O)c1ccc(O)cc1; Pro(3S-OH,4S-Me) = C[C@H]1CN[C@H](C(=O)O)[C@H]1O; Hyp = O=C(O)[C@@H]1C[C@@H](O)CN1

Tests used:
[1] = system: C. glabrata strains (WT, pdr1∆ or PDR1 rescue); assay: Growth assays to assess compound efflux; format: cell-based; details: for growth relative to Solvent = 100 (Figure S10B): compound 50 µM, three replicates
Protocol: Cells from a single colony were diluted in 0.85% NaCl before being counted using a Neubauer chamber. […] The effect of fluconazole was tested by titration on these strains under similar conditions.

[2] = system: C. glabrata strains expressing WT and mutant Bdf1; assay: Growth inhibition in liquid media, C. glabrata lab strains; details: Exp 1-3; for %Growth: 50 µM, WT BDF1-flag; for OD at 600 nm: Figure S4B
Protocol: (§2) Growth on Liquid Media with C. glabrata Lab Strains: Cells were grown at 30 °C in SC+M+C‐U medium (SC medium with 5 mM methionine, 0.25 mM cysteine, without uracil) to an OD600 of 0.5–0.8. […] Plates were incubated at 30 °C and OD600 was measured using a Multiskan FC Microplate Photometer (Thermo Fisher).

[3] = system: C. glabrata expressing humanized Bdf1 (Brd4 BDs); assay: Growth inhibition in liquid media, humanized C. glabrata strains; details: 50 µM, Exp 1-3
Protocol: as §2

[4] = target: CgBdf1 BD1 (Candida glabrata, UniProt Q6FWV7); assay: HTRF assay, inhibition of H4ac4 peptide binding; design: species or system C. glabrata; details: Fig 1D/2A original data; single experiments Exp1-3
Chain of CgBdf1 BD1 (Q6FWV7 entry or part of it): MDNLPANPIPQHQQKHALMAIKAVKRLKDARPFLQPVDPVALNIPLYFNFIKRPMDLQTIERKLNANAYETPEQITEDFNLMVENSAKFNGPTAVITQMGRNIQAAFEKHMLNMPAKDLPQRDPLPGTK

[5] = target: CgBdf1 BD2 (Candida glabrata, UniProt Q6FWV7); assay: biochemical; format: binding, C. glabrata; details: Fig 1D/2A original data; single experiments Exp1-3
Chain of CgBdf1 BD2 (Q6FWV7 entry or part of it): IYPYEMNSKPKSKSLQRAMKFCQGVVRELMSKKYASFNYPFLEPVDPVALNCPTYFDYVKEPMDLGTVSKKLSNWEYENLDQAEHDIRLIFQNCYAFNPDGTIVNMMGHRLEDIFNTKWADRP

[6] = system: C. albicans expressing WT Bdf1; assay: Galleria fungal infection model, WT strain; format: in vivo, Galleria mellonella; design: key to survival event of one larva (1 = death 0 = no death): 1 = death; 0 = no death; details: Figure 6B
Protocol: (§1) Galleria mellonella larvae were purchased from Decathlon (La Tronche, France). They were selected in the late larval stages weighing between 300 and 400 mg. Groups of 10 larvae were injected into the right or left last pro‐leg with 10 µl of either PBS, C. albicans suspensions or antifungal drug using an insulin syringe (BDUltra‐Fine 0.3 ml). C. albicans suspensions of the WT and humanized Bdf1 strains were adjusted to 10^6 cells larva^−1. Antifungal drugs (anidulafungin 5 mg kg^−1 or I‐BET726 66 or 44 mg kg^−1) were injected once 30 min before fungal infection. An infected control group received the C. albicans inoculum and the solvent of the drug. A non‐infected control group received only PBS. After inoculation, larvae were placed in Petri dishes and incubated in the dark at 37 °C. The larvae were monitored for 5 days, and survival outcome was determined. For experiments performed at the lower (44 mg kg^−1) dose of IBET‐726, the difference in protection against infection with humanized versus WT C. albicans strains was more evident using the survival data at 40 h rather than at 100 h post‐infection. Larvae were considered dead when no response was observed following touch. All experiments were performed at least 3 times independently. The significance of survival was assessed by a Log‐rank (Mantel‐Cox) test in GraphPad Prism 10.

[7] = system: C. albicans expressing humanized Bdf1; assay: Galleria fungal infection model, humanized strain; format: in vivo, Galleria mellonella; design: key to survival event of one larva (1 = death 0 = no death): 1 = death; 0 = no death; details: Figure 6C; Bdf1-hBD* strain; Time 8 hours
Protocol: as §1

[8] = target: S. cerevisiae histone H2A variant H2A.Z fused to LgBiT (UniProt Q12692); assay: NanoBiT assay in live S. cerevisiae cells; details: parent: est. 1.0; read off a plot

Row | Molecule | growth relative to Solvent = 100 (Figure S10B) ([1]; PDR1 Rescue) | growth relative to Solvent = 100 (Figure S10B) ([1]; WT) | growth relative to Solvent = 100 (Figure S10B) ([1]; pdr1∆) | %Growth ([2]; Fig 3E) | %Growth ([3]; Fig 3E, BDF1-hBD1-flag) | %Growth ([3]; Fig 3E, BDF1-hBD2-flag) | %Growth ([3]; Fig 3E, humanized BDF1-flag) | further results
1 | CCNC(=O)c1cc2c(-c3cc(C(C)(C)O)ccc3Oc3c(C)cc(F)cc3C)cn(C)c(=O)c2[nH]1 [ABBV744] | 73.7317 and 83.5862 and 73.3043 | 66.394 and 67.598 and 72.0455 | 59.2642 and 64.761 and 73.9837 | 90% and 89% and 91% | 90% and 85% and 80% | 38% and 32% and 37% | 41% and 39% | –
2 | Cc1sc2c(c1C)C(c1ccc(Cl)cc1)=N[C@@H](CC(=O)OC(C)(C)C)c1nnc(C)n1-2 [JQ1, reference compound] | – | – | – | 113% and 106% and 114% | 83% and 74% and 78% | 91% and 86% | 46% and 40% and 43% | pIC50 CgBD1 [4]: 5.18 and 5.05 and 5.03; pIC50 CgBD2 [5]: 6.15 and 6.10 and 6.13; activity against PDR1 deletion strain versus WT/rescue ([1]; 50 µM (I-BET726 1 µM), 20 h): increased efficacy; %Growth ([2]; Fig 3D): 112.7% and 106.1% and 114.4%; OD at 600 nm ([2]; WT BDF1 strain): 0.392 and 0.386 and 0.385; OD at 600 nm ([2]; bdf1-bd1Δ strain): 0.328 and 0.347 and 0.329; OD at 600 nm ([2]; bdf1-bd2Δ strain): 0.195 and 0.225 and 0.183; %Growth ([3]; Fig 3D, humanized BDF1-flag): 46.0% and 39.6% and 43.2%
3 | COc1cc(OC)c2c(=O)[nH]c(-c3cc(C)c(OCCO)c(C)c3)nc2c1 [RVX208] | 70.1855 and 71.3614 and 82.784 | 80.2726 and 64.9447 and 62.8512 | 66.409 and 64.9859 and 67.3918 | 91% and 96% | 95% and 91% and 88% | 94% and 82% and 93% | 80% and 88% and 77% | –
4 | CCCCCOc1ccc(-c2ccc(-c3ccc(C(=O)N[C@H]4C[C@@H](O)[C@@H](O)NC(=O)[C@@H]5[C@@H](O)[C@@H](C)CN5C(=O)[C@H]([C@@H](C)O)NC(=O)[C@H]([C@H](O)[C@@H](O)c5ccc(O)cc5)NC(=O)[C@@H]5C[C@@H](O)CN5C(=O)[C@H]([C@@H](C)O)NC4=O)cc3)cc2)cc1 [anidula-fungin] ({pTerphenylCO(4''-OnC5H11)}-[Orn(4R-OH,5R-OH)]T[Hyp][hTyr(3S-OH,4S-OH)]T[Pro(3S-OH,4S-Me)]; lactam 1-C) | – | – | – | – | – | – | – | survival event of one larva (1 = death 0 = no death) ([6]; Time 10 hours): 1; survival event of one larva (1 = death 0 = no death) ([6]; Time 35 hours): 1; survival event of one larva (1 = death 0 = no death) ([6]; Time 50 hours): 1
5 | CCCCCOc1ccc(-c2ccc(-c3ccc(C(=O)N[C@H]4C[C@@H](O)[C@@H](O)NC(=O)[C@@H]5[C@@H](O)[C@@H](C)CN5C(=O)[C@H]([C@@H](C)O)NC(=O)[C@H]([C@H](O)[C@@H](O)c5ccc(O)cc5)NC(=O)[C@@H]5C[C@@H](O)CN5C(=O)[C@H]([C@@H](C)O)NC4=O)cc3)cc2)cc1 [anidulafungin] ({pTerphenylCO(4''-OnC5H11)}-[Orn(4R-OH,5R-OH)]T[Hyp][hTyr(3S-OH,4S-OH)]T[Pro(3S-OH,4S-Me)]; lactam 1-C) | – | – | – | – | – | – | – | survival event of one larva (1 = death 0 = no death) [7]: 1
6 | C. glabrata Bdf1-SmBiT expressed in S. cerevisiae Y166F; Y343F | – | – | – | – | – | – | – | ratio to parent [8]: 0.27
